The subject of series [1] is ALT. Nature of the series: Serum alanine transaminase (ALT) activity. In kind it is in vivo, mouse. The conditions noted are these: for Serum Biomarker elevation ALT activity: APAP 530 mg/kg i.p., CD-1 mice.
Series [2] has as its system Total hepatic glutathione (GSH+GSSG). Nature of the series: Determination of hepatic glutathione levels. Type of series: in vivo, mouse. Also on record: key to GSH depletion: (+) indicates significant; (−) non-significant hepatic GSH depletion compared to control animals. The following applies: for GSH depletion: hepatic, APAP 530 mg/kg i.p., CD-1 mice. How it is done:
Total hepatic glutathione (GSH+GSSG) levels were determined as described previously (29).

In series [3] the test system is HMGB1. Put plainly: Total serum HMGB1 by ELISA. Type of series: in vivo, mouse. The conditions noted are these: for Serum Biomarker elevation Total HMGB1: APAP 530 mg/kg i.p., CD-1 mice.
Series [4] concerns HMGB-1. From the text:
(A) Schematic overview of the location of cysteine 106 within the cytokine domain of murine HMGB-1 which is characterized by MS/MS. […] MS/MS and western figures are representative of 6 mice per group.

In series [5] the test system is DNA laddering. Nature of the series: Hepatic DNA laddering (agarose gel). Also noted: key: (+) indicates positive detection of DNA laddering or processing of caspase-3 by western blot (WB). In kind it is in vivo, mouse. The protocol: (§1) Caspase-3 western blotting was carried out as described previously (30) on mouse liver cytosol fractions prepared from snap frozen livers. DNA was isolated from snap frozen livers using the Sigma-Aldrich GeneElute kit according to the manufacturer's instructions. DNA laddering was visualised through ethidium bromide staining following separation on a 1% agarose gel. […] The number of cleaved caspase-3 positive cells (cytoplasmic staining) was evaluated semi-quantitatively (− no positive cells; + scattered positive cells; ++ moderate number of positive cells, +++ numerous positive cells).

Series [6] deals with HMGB1. Put plainly: Serum hypo- and hyper-acetylated HMGB1 by LC-MS/MS (relative values). Type of series: in vivo, mouse. The following applies: APAP 530 mg/kg, mice, post dose, 0-24 hr time course. How it is done: Overnight immunoprecipitations (IP) of serum K18 and HMGB1 (5 μg antibody and protein G separation) were subjected to SDS-PAGE. Protein bands were excised from Coomassie Blue-stained gels, destained by incubation with 50% acetonitrile/50 mM ammonium bicarbonate followed by vacuum drying. Gel pieces were rehydrated in 50 mM ammonium bicarbonate containing 40 ng/μL modified trypsin (K18) or GluC (HMGB1) and incubated for 16 hr at 37° C. Peptides were extracted by incubation with 2 changes of 60% acetonitrile/1% trifluoroacetic acid and the resulting supernatants were again dried. Extracts were desalted using C18 ZipTips according to the manufacturer's instructions and reconstituted in 5% acetonitrile/0.1% trifluoroacetic acid. For LC-MS/MS analysis, samples were delivered into a QSTAR Pulsar i hybrid mass spectrometer (Applied Biosystems) by automated in-line liquid chromatography (integrated LC-Packings System, 5 mm C18 nano-precolumn and 75 μm×15 cm C18 PepMap column (Dionex, Calif., USA) via a nano-electrospray source head and 10 μm inner diameter PicoTip (New Objective, USA). A gradient from 5% acetonitrile/0.05% trifluoroacetic acid (v/v) to 48% acetonitrile/0.05% trifluoroacetic acid (v/v) in 60 min was applied at a flow rate of […], MS and MS/MS spectra were acquired automatically in positive ion mode using information-dependent acquisition (Analyst, Applied Biosystems). Database searching was performed using Protein Pilot 2 (Applied Biosystems) with the latest version of the SwissProt database, with the confidence level set at 80%, and with biological modifications allowed. Quantification of murine serum full length K18 and caspase dependent K18 fragments was accomplished through construction of standard curves generated with synthetic peptide standards spiked into and could be recovered from control serum and compared to immunoassay (17). The full length K18 standard ([…]) was designed to span the caspase 3, 7, 9 cleavage site, whereas the abbreviated peptide ([…]) is only derived from K18 fragments with the caspase cleavage site cut (limit of detection; 300 fmol/ml. coefficient of variation; <10%). HMGB1 and its hyper-acetylated derivative were quantified by spectral counting of the peptide peak, since no synthetic standards were available, and are consequently presented only as relative values and compared to total levels determined by ELISA according to the manufacturer's instructions (limit of detection; 0.1 ng/ml. coefficient of variation; <10%).

Series [7] has as its system caspase-3. Nature of the series: Caspase-3 western blotting of liver cytosol. In kind it is in vivo, mouse. Also on record: key to Caspase 3 processing (WB): (+) indicates positive detection of DNA laddering or processing of caspase-3 by western blot (WB). The conditions noted are these: for Caspase 3 processing (WB): hepatic, APAP 530 mg/kg i.p., CD-1 mice. How it is done: as §1
(In general: Immunoblotting shows a protein as a band on a membrane.)

Series [8] concerns apoptotic markers. Nature of the series: Effect of Z-VAD.fmk on APAP-induced apoptotic markers (DNA laddering, pro-caspase 3 processing, serum caspase cleaved K18). Type of series: in vivo, mouse. The conditions noted are these: Z-VAD.fmk 10 mg/kg i.v. 15 min pre-APAP (530 mg/kg; 5 hr), compared with APAP alone. The protocol:
as §1
Overnight immunoprecipitations (IP) of serum K18 and HMGB1 (5 μg antibody and protein G separation) were subjected to SDS-PAGE. […] Quantification of murine serum full length K18 and caspase dependent K18 fragments was accomplished through construction of standard curves generated with synthetic peptide standards spiked into and could be recovered from control serum and compared to immunoassay (17). […] HMGB1 and its hyper-acetylated derivative were quantified by spectral counting of the peptide peak, since no synthetic standards were available, and are consequently presented only as relative values and compared to total levels determined by ELISA according to the manufacturer's instructions (limit of detection; 0.1 ng/ml. coefficient of variation; <10%).

Series [9] has as its system male CD-1 mice. Put plainly: Histological assessment of hepatotoxicity (H&E liver sections, hepatocyte loss score). The following applies: APAP co-dosed with Z-VAD.fmk, 5 hr.
Where [10] appears, read: APAP 530 mg/kg, mice, 3-24 hr time course.
[11] abbreviates: APAP 530 mg/kg, mice, 10 hr post treatment.

Residues, ends and D or L forms follow the SMILES beside them. *: point of attachment. Cbz = O=C(OCc1ccccc1)*; CH2F = FC* A value given as a limit tells only on which side of the number the result lay.

Take `CC(=O)Nc1ccc(O)cc1` [APAP, Acetaminophen]: the “Serum Biomarker elevation ALT activity” value in series [1] (3 hr), in series [1] (5 hr), in series [1] (10 hr), in series [1] (15 hr), in series [1] (20 hr) and in series [1] (24 hr) was “+” throughout. Moreover, the “increased serum ALT activity, time course” value in series [1] (setting [10]) was “observed over the entire time course”. For the same molecule, the GSH depletion result in series [2] (3 hr) is listed as “+”; in [2] (5 hr) it was “+”; in [2] (10 hr) it was “−”; in [2] (15 hr) it was “−”; in series [2] (20 hr), “−”; in series [2] (24 hr), “−”. Moreover, the “Serum Biomarker elevation Total HMGB1” value in [3] (3 hr) is reported as “+”; in series [3] (5 hr), “+”; in series [3] (10 hr) it was “+”; in [3] (15 hr), “+”; in series [3] (20 hr), “−”; in series [3] (24 hr) it was “−”. Further, the “last time point with serum HMGB1 elevation” value in series [3] (setting [10]) was no more than 15 h. In addition, in [4] (fasted mice dosed with APAP (530 mg/kg; 5 h)), the “serum molecular form of HMGB-1 present” value is given as “the only serum molecular form of HMGB-1 present was the reduced form”. The “predominant form of HMGB-1 in sera” value in [4] (fed mice dosed with APAP (530 mg/kg; 5 h)) is given as “oxidized, immune-tolerant form”. Besides, the toxicity result in [4] (mouse, in vivo) is reported as “displaying toxicity”. In addition, the “DNA laddering” value is on record as “no evidence” in series [5] (setting [11]); “+” in [5] (hepatic, APAP 530 mg/kg i.p., CD-1 mice, 3 hr); “+” in series [5] (hepatic, APAP 530 mg/kg i.p., CD-1 mice, 5 hr). In series [6], the “time of first significant elevation of necrosis-associated (hypo-acetylated) serum HMGB1” value worked out at 3 h. Besides, in series [6], the “time of first significant increase of immune cell derived (hyper-acetylated) serum HMGB1” value amounted to 5 h. Moreover, in series [6], the “time of peak of immune cell derived (hyper-acetylated) serum HMGB1” value amounted to 15 h. Further, the “time of return to control levels of immune cell derived (hyper-acetylated) serum HMGB1” value in series [6] was no more than 24 h. Further, the “caspase 3 processing” value in series [7] (setting [11]) is “no evidence”. Also, the “Caspase 3 processing (WB)” value in series [7] (3 hr), in series [7] (5 hr) and in [7] (10 hr) was “+” throughout.
For `COC(=O)C[C@H](NC(=O)[C@H](C)NC(=O)[C@@H](NC(=O)OCc1ccccc1)C(C)C)C(=O)CF` [Z-VAD.fmk] (Cbz-Val-Ala-Asp(OMe)-CH2F), in series [8], the “detection of apoptotic markers in APAP dosed mice” value was “completely inhibited”. Besides, the “serum ALT level compared with APAP alone” value in series [1] (Z-VAD.fmk and APAP (530 mg/kg; 5 hr)) was “increased”. Further, the “effect on APAP-mediated GSH depletion” value in series [2] (Z-VAD.fmk pre-treatment, APAP 530 mg/kg, 5 hr) is “no effect”. Also, the “molecular form of HMGB1 detected” value in series [4] (Z-VAD.fmk in APAP-treated, fed mice) is on record as “only the reduced molecular form”. Further, the “apoptotic hepatocyte death by histology and immunohistology for cleaved caspase-3” value in series [9] is listed as “no evidence”. In addition, the “Histological scoring of centrilobular hepatocyte loss” value in series [9] (score 0-5, higher than APAP alone (p<0.05)) was 2-3.

The values above are taken from US8748109B2, “Method for the detection of organ or tissue injury” (priority 2009, dated 2014).
